The values below come from patent publication US20090184062A1, “METHOD FOR INHIBITING BIOFILM GROWTH” (PPG INDUSTRIES OHIO, INC., priority 2008, published 2009).

Series [1] relates to Sphaerotilus natans (ATCC 15291) biofilm. As to the kind of experiment: Biocidal effect on an existing Sphaerotilus natans biofilm in Erlenmeyer flasks (agar plate count of surviving organisms). In kind it is cell-based. The procedure: In the following examples, the sheathed filamentous bacterium Sphaerotilus natans (ATCC 15291) was used. A freeze-dried sample of the bacterium was obtained from the American Type Culture Collection (ATCC, Rockville, Md.). ATCC growth medium (CYGA #1103 broth) was prepared by dissolving (per liter of tap water): 5 grams casitone (pancreatic digest of casein, Difco #225930), which is available from Voight Global Distributions, Inc., Lawrence, Kans.; 10 grams of glycerol; and 1 gram of yeast extract. The growth medium was sterilized at 120° C. for 15 minutes. The sample of Sphaerotilus natans obtained from ATCC was cultured in the CYGA growth medium and transferred to agar plates prepared from CYGA medium plus 1.5 weight percent agar. The agar plates were incubated at 30° C. The bacterium from these agar plates was transferred (subcultured) every few weeks to fresh agar plates to maintain the viability of the microorganism.
3-chloro-4,4-dimethyl-2-oxazolidinone (DMO-Cl) reagent was prepared by manually mixing a selected amount of 4,4-dimethyl-2-oxazolidinone (DMO) and a hypochlorite-containing stock solution in an Erlenmeyer flask, and allowing the mixture to stand for 8-10 hours at room temperature (about 23° C.) prior to use in the experiments. The hypochlorite-containing stock solution was prepared by dissolving calcium hypochlorite in deionized water in an Erlenmeyer flask. The amount of calcium hypochlorite used provided a hypochlorite concentration of approximately 1000 mg/L. The DMO used was Sustains Summer Shield (approximately 17.5 wt. % DMO, density of 1.14 g/mL), which is available from PPG Industries, Inc. The mixture was diluted to the desired concentration with sterile tap water before use in the experiments. Sterile tap water used in the experiments was prepared by autoclaving tap water at 120° C. for 15 minutes. The sterile tap water contained no measurable level of chlorine.
A loop full of Sphaerotilus natans (S. Natans) from an Agar plate containing the S. Natans culture was inoculated in 150 mL of CYGA #1103 growth medium and agitated in a temperature-controlled shaker at 30° C. and 150 rpm for 20 hours to prepare a pre-culture. Five (5) mL of this pre-culture were inoculated into each of a series of 250 mL Erlenmeyer flasks containing 150 mL of CYGA growth medium for batch cultivation of the S. Natans. The bacterium were cultivated at 30° C. for 96 hours on a rotary shaker at 150 rpm. At these conditions, a biofilm layer approximately 2-3 mm high formed on the inside wall of each of the Erlenmeyer flasks near the liquid surface. Approximately 50 to 75 percent of the liquid growth medium in the flasks was carefully decanted, leaving the biofilm layer intact. The decanted liquid growth medium was discarded.
For the control, sterile tap water was added to an Erlenmeyer flask. In other tests (as shown in Table I), various levels of hypochlorous acid (HOCl) or 3-chloro-4,4-dimethyl-2-oxazolidinone (DMO-Cl) were added to an Erlenmeyer flask. The amount of tap water used was approximately equal to the volume of decanted growth medium. The flasks were placed on a temperature controlled rotary shaker (30° C., 150 rpm) for 60 minutes. Total chlorine and free chlorine levels in the liquid medium in the flasks were measured at the beginning and at the end of the 60 minute contact time. At the end of the 60 minute contact time, the biofilm ring was carefully scraped from the flask surface and added to the liquid medium in the flask to ensure that the liquid medium contained the entire biofilm population for enumeration. The liquid in the flask was vigorously agitated to uniformly disperse the organisms. The liquid in the flask was sampled and serially diluted in sterile tap water for agar plating to enumerate the surviving organisms. Agar plating was performed in duplicate and the number of microorganism colonies counted after 48 hours of growth at approximately 30° C. […]

Series [2] can be described thus: Total and free chlorine levels in the liquid medium at the end of the contact time (Hach DPD test kit). The series is classed as physicochemical. Conditions: for End FC (free chlorine after one hour) / End TC (total chlorine after one hour): Table I, after 60 min with biofilm, expressed as mg/L Cl2; for End FC (free chlorine at end) / End TC (total chlorine at end): Table II, 30 min contact, as Cl2. The procedure:
For the control, sterile tap water was added to an Erlenmeyer flask. In other tests (as shown in Table I), various levels of hypochlorous acid (HOCl) or 3-chloro-4,4-dimethyl-2-oxazolidinone (DMO-Cl) were added to an Erlenmeyer flask. The amount of tap water used was approximately equal to the volume of decanted growth medium. The flasks were placed on a temperature controlled rotary shaker (30° C., 150 rpm) for 60 minutes. Total chlorine and free chlorine levels in the liquid medium in the flasks were measured at the beginning and at the end of the 60 minute contact time. At the end of the 60 minute contact time, the biofilm ring was carefully scraped from the flask surface and added to the liquid medium in the flask to ensure that the liquid medium contained the entire biofilm population for enumeration. The liquid in the flask was vigorously agitated to uniformly disperse the organisms. The liquid in the flask was sampled and serially diluted in sterile tap water for agar plating to enumerate the surviving organisms. Agar plating was performed in duplicate and the number of microorganism colonies counted after 48 hours of growth at approximately 30° C.
The procedure of Example 1 was followed except that the concentration of DMO-Cl was varied from 15 μL/L to 60 μL/L, and the contact time was 30 minutes to allow a better opportunity for survival and detection of the S. Natans microorganism. Symbols and footnotes used in Table II that are the same as those found in Table I have the same meaning.

The mark [3] stands for this setting: Table I, 60 min contact, initial total chlorine 5.4 mg/L (DMO-Cl prepared with 50 μL/L Sustain Summer Shield), average of duplicates.
Setting [4] is: Table I, 60 min contact, initial total chlorine about 1 mg/L (HOCl 1.1; DMO-Cl 1.04, prepared with 50 μL/L Sustain Summer Shield, approx. 10 mg/L DMO), average of duplicates.
The mark [5] stands for this setting: initial total chlorine 5.4 mg/L.
Where [6] appears, read: initial total chlorine about 1 mg/L (HOCl 1.1; DMO-Cl 1.04).
[7] abbreviates: HOCl, initial total chlorine 1.1 mg/L.
Setting [8] is: DMO-Cl prepared with 15 μL/L Sustain Summer Shield, initial total chlorine 1.2 mg/L.
[9] abbreviates: DMO-Cl prepared with 30 μL/L Sustain Summer Shield, initial total chlorine 1.18 mg/L.
[10] abbreviates: DMO-Cl prepared with 60 μL/L Sustain Summer Shield, initial total chlorine 1.19 mg/L.

Marks after values point to notes of the source that are not given here.

For `OCl` [HOCl, Hypochlorous Acid, reference compound], the “Final Cell Count” value was 0 cfu/mL in series [1] (setting [3]); 1.9 × 10^4 cfu/mL in series [1] (setting [4]); 2.3 × 10^4 cfu/mL in series [1] (Table II, 30 min contact, HOCl, initial total chlorine 1.1 mg/L). In addition, the “End FC (free chlorine after one hour)” value came out at 1.6 mg/L in series [2] (setting [5]) and 0 mg/L in series [2] (setting [6]). Also, the results for the “End TC (total chlorine after one hour)” value in series [2] (setting [5]) and in series [2] (setting [6]) were 3.1 mg/L and 0.3 mg/L, respectively. For the same molecule, in series [2] (setting [7]), the “End FC (free chlorine at end)” value is 0.1 mg/L. In addition, the “End TC (total chlorine at end)” value in series [2] (setting [7]) worked out at 0.31 mg/L.
On to `CC1(C)COC(=O)N1Cl` [DMO-Cl, 3-chloro-4,4-dimethyl-2-oxazolidinone], for which the “Final Cell Count” value in series [1] (setting [3]) is 0 cfu/mL; in series [1] (setting [4]), 25^a cfu/mL; in series [1] (Table II, 30 min contact, DMO-Cl prepared with 15 μL/L Sustain Summer Shield (approx. 3 mg/L DMO), initial total chlorine 1.2 mg/L), 2.1 × 10^4 cfu/mL; in series [1] (Table II, 30 min contact, DMO-Cl prepared with 30 μL/L Sustain Summer Shield (approx. 6 mg/L DMO), initial total chlorine 1.18 mg/L), 1.6 × 10^4 cfu/mL; in series [1] (Table II, 30 min contact, DMO-Cl prepared with 60 μL/L Sustain Summer Shield (approx. 12 mg/L DMO), initial total chlorine 1.19 mg/L) it was 0 cfu/mL. For the same molecule, in series [1] (existing S. Natans biofilm, 60 minutes contact time (Table I)), the “reduction in viable cell numbers” value was ≥ 3 log. Besides, the “End FC (free chlorine after one hour)” value is 0.2 mg/L in series [2] (setting [5]) and 0.1 mg/L in series [2] (setting [6]). Besides, the results for the “End TC (total chlorine after one hour)” value in series [2] (setting [5]) and in series [2] (setting [6]) were 4.7 mg/L and 0.4 mg/L, respectively. Moreover, the “End FC (free chlorine at end)” value in series [2] (setting [8]) is listed as 0.05 mg/L; in series [2] (setting [9]), 0.07 mg/L; in series [2] (setting [10]), 0 mg/L. In addition, the “End TC (total chlorine at end)” value is 0.52 mg/L in series [2] (setting [8]), 0.47 mg/L in series [2] (setting [9]) and 0.41 mg/L in series [2] (setting [10]).
As for `CC1(C)COC(=O)N1` [DMO, 4,4-dimethyl-2-oxazolidinone], the “control of biofilm in words” value in series [1] (between 50 and 60 μL/L of DMO with a source of free available chlorine, contact times between 30 and 60 minutes) is “complete control”.
